The record followed here is US12252491B2, “IL-17A inhibitors” (Eli Lilly and Company, priority 2019, dated 2025).

Series [1] can be described thus: Mouse oral bioavailability. Type of series: in vivo. Conditions: whole blood (dried blood spot), male mice, IV bolus 1 mg/kg vs oral 3 mg/kg, 8-hour AUC, read-out: % F (mouse). As to the method: Oral bioavailability (% F) for compounds of the invention may be determined in mice by determination of an 8-hour blood plasma AUC (nM*hr) following intravenous and oral administration performed essentially as follows. Male mice (n=3) are administered compound via intravenous (IV) bolus (1 mg/kg) or orally (3 mg/kg). For intravenous administration, a vehicle of 20% w/v capsitol in NaPO4 buffer (25 mM) adjusted to pH 2 in a volume of 5 mL/kg is used. For oral administration, a vehicle of HEC/P80/AF/PW (probe sonicated to afford a homogeneous suspension) in a volume of 10 mL/kg is used. Blood is sampled by saphenous bleeding using K2 EDTA as anticoagulant. Approximately 20 μL of blood (or enough for 1 spot) is collected via a capillary tube and transferred to a card as a dry blood spot. Cards are allowed to dry for at least 2 hours before shipping for analysis. Blood concentration of compounds for each mouse is measured by liquid chromatography/tandem mass spectrometry at time points of 0.08 (IV only), 0.25, 0.5, 0.75, 2, 4, and 8 hours. Oral bioavailability (% F) is determined via the following equation: [% F=(AUC/Dose)PO/(AUC/Dose)IV].

Series [2] concerns the target binding of IL-17A to IL-17RA (Homo sapiens (Human), UniProt Q16552). The series can be described thus: IL-17A:IL-17RA AlphaLISA.
Experimental: The ability of compounds to inhibit the binding of IL-17A to IL-17RA may be assessed with an AlphaLISA assay.
To assay the compounds of the present invention, 0.1 μL of a test compound stock is serially diluted in 100% DMSO using an Echo Acoustic Liquid Handler (LabCyte Sunnydale, Calif.) in 384 well proxiplates (Perkin Elmer). A 5 μL addition of IL-17RA-FLAG is added to the plate, followed by the addition of 5 μL Avi-tagged IL-17A-His to provide a final concentration of 2 nM of IL-17RA and IL-17A, respectively. The assay is carried out in 20 mM HEPES, 150 mM NaCl, 0.05% Tween-20, 0.1% Human Serum Albumin, pH 7 and 1% DMSO. The assay mixture is allowed to incubate at room temperature for 2 hours. After the 2 hour incubation, 10 μL of streptavidin donor beads (20 μg/ml final) and anti-FLAG acceptor beads (20 μg/ml final) are added to the plate. The plate is allowed to incubate for one hour at room temp, then is read on the Envision (Perkin Elmer). The relative IC50 values are determined using a four parameter fit as shown in equation 1. In this equation, bottom and top are defined as the plateaus of the curve, and H is the Hill Slope.
For a further series, the target named is human IL-17A (Homo sapiens (Human), UniProt Q16552).
Chain of human IL-17A (Q16552 20-155): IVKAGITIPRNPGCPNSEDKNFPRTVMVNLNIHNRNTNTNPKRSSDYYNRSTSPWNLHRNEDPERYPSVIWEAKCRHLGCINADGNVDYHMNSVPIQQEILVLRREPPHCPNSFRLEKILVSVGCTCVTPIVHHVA

Chain of binding of IL-17A to IL-17RA (Q16552 other isoform, or with tags, fused parts or gaps): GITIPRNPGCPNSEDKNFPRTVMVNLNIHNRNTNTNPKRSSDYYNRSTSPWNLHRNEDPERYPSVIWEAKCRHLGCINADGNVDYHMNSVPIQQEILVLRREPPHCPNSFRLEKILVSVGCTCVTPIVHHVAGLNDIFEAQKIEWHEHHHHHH
Experimental for human IL-17A: The ability of compounds to neutralize the activity of IL-17A may be assessed with a cell-based human IL-17A neutralization assay conducted essentially as follows. […] After 48 hours, CXCL1/GROα in the culture media is measured using a commercial ELISA kit (#DY275; R&D Systems). Medium alone treatments are included in every experiment to assess the basal levels of CXCL1/GROα. Percent inhibition is calculated using the following equation:

On to `COC[C@H](c1cnn2cc([C@@H](NC(=O)c3nonc3C3CC3)C3CCC(F)(F)CC3)nc2c1)N1C[C@@H](C(F)(F)F)NC1=O` [Example 25, 4-Cyclopropyl-N—[(S)-(4,4-difluorocyclohexyl)-[7-[(1S)-2-methoxy-1-[(4S)-2-oxo-4-(trifluoromethyl)imidazolidin-1-yl]ethyl]imidazo[1,2-b]pyridazin-2-yl]methyl]-1,2,5-oxadiazole-3-carboxamide], for which, in series [1], the bioavailability was 37%. Besides, the IC50 is under 9.45 nM in series [2] and 2.2 ± 1.6 nM against human IL-17A.
For `O=C(N[C@H](c1cn2ncc(CN3C[C@@H](C(F)(F)F)NC3=O)cc2n1)C1CCC(F)(F)CC1)c1conc1C1CC1` [Example 1, 3-Cyclopropyl-N—[(S)-(4,4-difluorocyclohexyl)-[7-[[(4S)-2-oxo-4-(trifluoromethyl)imidazolidin-1-yl]methyl]imidazo[1,2-b]pyridazin-2-yl]methyl]isoxazole-4-carboxamide], in that order: 34%, 15.7 ± 7 nM and 51.6 ± 23.5 nM.
On to `O=C(N[C@H](c1cn2ncc(CN3C[C@@H](C(F)(F)F)NC3=O)cc2n1)C1CCC(F)(F)CC1)c1conc1C(F)(F)F` [Example 11, N—[(S)-(4,4-Difluorocyclohexyl)-[7-[[(4S)-2-oxo-4-(trifluoromethyl)imidazolidin-1-yl]methyl]imidazo[1,2-b]pyridazin-2-yl]methyl]-3-(trifluoromethyl)isoxazole-4-carboxamide], for which, in series [1], the bioavailability was 55%. In addition, the IC50 was under 9.45 nM in series [2] and 148 nM on human IL-17A.
Consider `O=C(N[C@H](c1cn2ncc(CN3C[C@@H](C(F)(F)F)NC3=O)cc2n1)C1CCC(F)(F)CC1)c1conc1CF` [Example 7, N—[(S)-(4,4-Difluorocyclohexyl)-[7-[[(4S)-2-oxo-4-(trifluoromethyl)imidazolidin-1-yl]methyl]imidazo[1,2-b]pyridazin-2-yl]methyl]-3-(fluoromethyl)isoxazole-4-carboxamide], for which the bioavailability in series [1] stood at 47%. Also, the IC50 in series [2] was 37.8 nM; against human IL-17A, 128 nM.
For `CC(F)(F)c1nocc1C(=O)N[C@H](c1cn2ncc(CN3C[C@@H](C(F)(F)F)NC3=O)cc2n1)C1CCC(F)(F)CC1` [Example 5, N—[(S)-(4,4-Difluorocyclohexyl)-[7-[[(4S)-2-oxo-4-(trifluoromethyl)imidazolidin-1-yl]methyl]imidazo[1,2-b]pyridazin-2-yl]methyl]-3-(1,1-difluoroethyl)isoxazole-4-carboxamide], in that order: 49%, 20 nM and 104 nM.
